Reference: patent publication US12187713B2, “Immunomodulators, compositions and methods thereof” (Betta Pharmaceuticals Co., Ltd, priority 2019, dated 2025)

Legend:
[1] = target: PD-1/PD-L1 (Homo sapiens (Human), UniProt Q9NZQ7); test: PD-1/PD-L1 Binding Assay (Alphascreen)
Procedure, shortened: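 PD-1/PD-L1 binding detected by anti-6×His acceptor and streptavidin donor beads after 120 min in the dark at 25 °C. Beforehand, the two proteins were incubated 15 min at 25 °C with inhibitor at 0.015–300 nM (1% DMSO). IC50 comes from a log concentration–response curve.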

[2] = Pharmacokinetic Assay, single oral dose 100 mg/kg (Table 11); assay type: in vivo; details: mouse, C57 female mice, oral (intragastric), plasma
Procedure: Adult C57 female mice were received to single-dose of the test compounds with […], 10% Kolliphor^@HS 15 and 80% saline as excipients, the mice (n=9) were giving oral administration (intragastric administration) with the compounds at a dose of 100 mg/kg. Time of blood collection: 15 min, 30 min, 1 h, 2 h, 4 h, 7 h, 24 h. Approximately 0.1 mL of whole blood was collected from retro-orbital venous plexus of 3 mice at each time point, and placed into tubes that contained K2-EDTA as an anticoagulant. The whole blood was centrifuged at 4° C. and 4000 rpm for 10 min. The plasma was transferred into centrifuge tubes, and stored at −20° C. until being analyzed. Concentrations of test compounds in the plasma samples were analyzed with liquid chromatography-tandem mass spectrometry (LC-MS/MS). Plasma concentration-time data of individual animals was analyzed using Microsoft Excel 2010. Non-compartmental model was introduced in concentration analysis. The pharmacokinetic parameters of the test compounds were calculated using WinNonlin (version 4.1; Pharsight) software.

Chain of PD-1/PD-L1 (Q9NZQ7 19-238): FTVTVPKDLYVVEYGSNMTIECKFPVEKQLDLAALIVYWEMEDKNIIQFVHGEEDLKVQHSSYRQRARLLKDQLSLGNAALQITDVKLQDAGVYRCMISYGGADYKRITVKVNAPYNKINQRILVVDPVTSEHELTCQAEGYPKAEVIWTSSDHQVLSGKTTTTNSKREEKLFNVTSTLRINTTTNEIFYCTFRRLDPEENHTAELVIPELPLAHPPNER

| SMILES | IC50 ([1]; numeric values) | AUC [2] | Cmax [2] | Tmax [2] | half-life [2] | IC50 ([1]; range symbols) |
| --- | --- | --- | --- | --- | --- | --- |
| Cc1c(-c2nc3cc(CN4CCC4)c(OC(F)F)cc3o2)cccc1-c1cccc(-c2nc3cc(CN4CCC[C@H]4C(=O)O)c(OC(F)F)cc3o2)c1C [Example 8, ((2-(3′-(5-(azetidin-1-ylmethyl)-6-(difluoromethoxy)benzo[d]oxazol-2-yl)-2,2′-dimethyl-[1,1′-biphenyl]-3-yl)-6-(difluoromethoxy)benzo[d]oxazol-5-yl)methyl)-L-proline] | 0.75 nM | 8.24 µg·h/mL | 974 ng/mL | 4 h | 3.97 h |  |
| Cc1c(-c2nc3cc(CN4CCC[C@H]4C(=O)O)c(OC(F)F)cc3o2)cccc1-c1cccc(-c2nc3cc(CN4CCCC4)c(OC(F)F)cc3o2)c1C#N [Example 65, ((2-(2′-cyano-3′-(6-(difluoromethoxy)-5-(pyrrolidin-1-ylmethyl)benzo[d]oxazol-2-yl)-2-methyl-[1,1′-biphenyl]-3-yl)-6-(difluoromethoxy)benzo[d]oxazol-5-yl)methyl)proline] | 1.3 nM | 40.4 µg·h/mL | 2460 ng/mL | 4 h | 10.7 h |  |
| Cc1c(-c2nc3cc(CN4CCC[C@H]4C(=O)O)c(OC(F)F)cc3o2)cccc1-c1cccc(-c2nc3cc(CN4CCC[C@H]4C(=O)O)c(OC(F)F)cc3o2)c1C [Example 2, (2′S)-(((2,2′-dimethyl-[1,1′-biphenyl]-3,3′-diyl)bis(6-(difluoromethoxy)benzo[d]oxazole-2,5-diyl))bis(methylene))di-L-proline] | 0.2 nM | 0.271 µg·h/mL | 218 ng/mL | 0.5 h | 3.3 h |  |
| Cc1c(Nc2nccc3cc(CN4CCC[C@@]4(C)C(=O)O)cnc23)cccc1-c1cccc(-c2nc3cc(CN4CCC[C@H]4C(=O)O)c(OC(F)F)cc3o2)c1C [Example 171, (S)-1-((8-((3′-(5-(((S)-2-carboxypyrrolidin-1-yl)methyl)-6-(difluoromethoxy)benzo[d]oxazol-2-yl)-2,2′-dimethyl-[1,1′-biphenyl]-3-yl)amino)-1,7-naphthyridin-3-yl)methyl)-2-methylpyrrolidine-2-carboxylic acid] |  | 3.47 µg·h/mL | 965 ng/mL | 1 h | 3.66 h | 0.1 to 5 nM |
| COC(=O)[C@@H]1CCCN1Cc1cc2nc(-c3cccc(-c4cccc(-c5nc6cc(CN7CCC[C@H]7C(=O)O)c(OC(F)F)cc6o5)c4C)c3C)oc2cc1OC(F)F [Example 3, ((6-(difluoromethoxy)-2-(3′-(6-(difluoromethoxy)-5-(((S)-2-(methoxycarbonyl)pyrrolidin-1-yl)methyl)benzo[d]oxazol-2-yl)-2,2′-dimethyl-[1,1′-biphenyl]-3-yl)benzo[d]oxazol-5-yl)methyl)-L-proline] | 89 nM | 0.461 µg·h/mL | 374 ng/mL | 1 h | 0.39 h |  |
| Cc1c(-c2nc3cc(CN4CCC[C@H]4C(=O)O)c(OC(F)F)cc3o2)cccc1-c1cccc(-c2nc3cc(CN4CCCC4)cc(F)c3o2)c1C [Example 95, ((6-(difluoromethoxy)-2-(3′-(7-fluoro-5-(pyrrolidin-1-ylmethyl)benzo[d]oxazol-2-yl)-2,2′-dimethyl-[1,1′-biphenyl]-3-yl)benzo[d]oxazol-5-yl)methyl)-L-proline] | 1.4 nM | 22.9 µg·h/mL | 2030 ng/mL | 4 h | 6.48 h |  |
| Cc1c(-c2nc3c(o2)CCN(C)C3)cccc1-c1cccc(-c2nc3cc(CN4CCC[C@H]4C(=O)O)c(OC(F)F)cc3o2)c1C [Example 314, ((6-(difluoromethoxy)-2-(2,2′-dimethyl-3′-(5-methyl-4,5,6,7-tetrahydrooxazolo[4,5-c]pyridin-2-yl)-[1,1′-biphenyl]-3-yl)benzo[d]oxazol-5-yl)methyl)-L-proline] | 8 nM | 29 µg·h/mL | 6350 ng/mL | 2 h | 5.43 h |  |
| Cc1c(-c2ccc(CN3CCCC3)c(OC(F)F)c2)cccc1-c1cccc(-c2nc3cc(CN4CCC[C@H]4C(=O)O)c(OC(F)F)cc3o2)c1C [Example 244, ((6-(difluoromethoxy)-2-(3″-(difluoromethoxy)-2,2′-dimethyl-4″-(pyrrolidin-1-ylmethyl)-[1,1′:3′,1″-terphenyl]-3-yl)benzo[d]oxazol-5-yl)methyl)-L-proline] | 2 nM | 78.1 µg·h/mL | 5740 ng/mL | 2 h | 7.01 h |  |
| Cc1c(-c2nc3cc(CN4CC5(CC5)C4)c(OC(F)F)cc3o2)cccc1-c1cccc(-c2nc3cc(CN4CCC[C@H]4C(=O)O)c(OC(F)F)cc3o2)c1C [Example 74, ((2-(3′-(5-((5-azaspiro [2.3]hexan-5-yl)methyl)-6-(difluoromethoxy)benzo[d]oxazol-2-yl)-2,2′-dimethyl-[1,1′-biphenyl]-3-yl)-6-(difluoromethoxy)benzo[d]oxazol-5-yl)methyl)-L-proline] | 1.1 nM | 59.5 µg·h/mL | 4460 ng/mL | 4 h | 8.2 h |  |
| Cc1c(-c2nc3cc(CN4CCC[C@H]4C(=O)O)c(OC(F)F)cc3o2)cccc1-c1cccc(-c2nc3cc(CN4CCC(C)C4)cc(C(F)(F)F)c3o2)c1C (stereo partly drawn) [Example 88, ((6-(difluoromethoxy)-2-(2,2′-dimethyl-3′-(5-((3-methylpyrrolidin-1-yl)methyl)-7-(trifluoromethyl)benzo[d]oxazol-2-yl)-[1,1′-biphenyl]-3-yl)benzo[d]oxazol-5-yl)methyl)-L-proline] |  | 2020 µg·h/mL | 117000 ng/mL | 24 h |  | 0.1 to 5 nM |
| Cc1c(-c2nc3cc(CN4CCC[C@H]4C(=O)O)c(OC(F)F)cc3o2)cccc1-c1cccc(-c2nc3cc(CN4CC(C)(C)C4)cc(C(F)(F)F)c3o2)c1C [Example 93, ((6-(difluoromethoxy)-2-(3′-(5-((3,3-dimethylazetidin-1-yl)methyl)-7-(trifluoromethyl)benzo[d]oxazol-2-yl)-2,2′-dimethyl-[1,1′-biphenyl]-3-yl)benzo[d]oxazol-5-yl)methyl)-L-proline] |  | 163 µg·h/mL | 9220 ng/mL | 4 h |  | 0.1 to 5 nM |
| Cc1c(-c2nc3cc(CN4CCC(C)C4)c(OC(F)F)cc3o2)cccc1-c1cccc(-c2nc3cc(CN4CCC[C@H]4C(=O)O)c(OC(F)F)cc3o2)c1C (stereo partly drawn) [Example 61, ((6-(difluoromethoxy)-2-(3′-(6-(difluoromethoxy)-5-((3-methylpyrrolidin-1-yl)methyl)benzo[d]oxazol-2-yl)-2,2′-dimethyl-[1,1′-biphenyl]-3-yl)benzo[d]oxazol-5-yl)methyl)-L-proline] | 1.6 nM | 118 µg·h/mL | 8650 ng/mL | 4 h | 5.37 h |  |
| Cc1c(Nc2nccc3cc(CN4CCC(O)C4)cnc23)cccc1-c1cccc(-c2nc3cc(CN4CCC[C@H]4C(=O)O)c(OC(F)F)cc3o2)c1C (stereo partly drawn) [Example 175, ((6-(difluoromethoxy)-2-(3′-((3-((3-hydroxypyrrolidin-1-yl)methyl)-1,7-naphthyridin-8-yl)amino)-2,2′-dimethyl-[1,1′-biphenyl]-3-yl)benzo[d]oxazol-5-yl)methyl)-L-proline] | 3.4 nM | 19.9 µg·h/mL | 1630 ng/mL | 2 h | 3.63 h |  |
| Cc1c(-c2nc3cc(CN(C)C)c(OC(F)F)cc3o2)cccc1-c1cccc(-c2nc3cc(CN4CCC[C@H]4C(=O)O)c(OC(F)F)cc3o2)c1C [Example 16, ((6-(difluoromethoxy)-2-(3′-(6-(difluoromethoxy)-5-((dimethylamino)methyl)benzo [d]oxazol-2-yl)-2,2′-dimethyl-[1,1′-biphenyl]-3-yl)benzo[d]oxazol-5-yl)methyl)-L-proline] | 1.1 nM | 20.9 µg·h/mL | 1470 ng/mL | 4 h | 4.8 h |  |
| Cc1c(-c2nc3ccc(CN4CCCC4)cc3o2)cccc1-c1cccc(-c2nc3cc(CN4CCC[C@H]4C(=O)O)c(OC(F)F)cc3o2)c1C [Example 108, ((6-(difluoromethoxy)-2-(2,2′-dimethyl-3′-(6-(pyrrolidin-1-ylmethyl)benzo[d]oxazol-2-yl)-[1,1′-biphenyl]-3-yl)benzo[d]oxazol-5-yl)methyl)-L-proline] |  | 10.1 µg·h/mL | 713 ng/mL | 1 h | 21.7 h | 0.1 to 5 nM |
| Cc1c(-c2nc3cc(CN4CCC[C@H]4C(=O)O)c(OC(F)F)cc3o2)cccc1-c1cccc(-c2nc3cc(CN4CCCC4)cc(C(F)(F)F)c3o2)c1C [Example 100, ((6-(difluoromethoxy)-2-(2,2′-dimethyl-3′-(5-(pyrrolidin-1-ylmethyl)-7-(trifluoromethyl)benzo[d]oxazol-2-yl)-[1,1′-biphenyl]-3-yl)benzo[d]oxazol-5-yl)methyl)-L-proline] |  | 235 µg·h/mL | 18900 ng/mL | 4 h | 10.5 h | 0.1 to 5 nM |
| Cc1c(-c2nc3cc(CN4CC[C@H]4CO)c(OC(F)F)cc3o2)cccc1-c1cccc(-c2nc3cc(CN4CCC[C@H]4C(=O)O)c(OC(F)F)cc3o2)c1C [Example 31, ((6-(difluoromethoxy)-2-(3′-(6-(difluoromethoxy)-5-(((S)-2-(hydroxymethyl)azetidin-1-yl)methyl)benzo[d]oxazol-2-yl)-2,2′-dimethyl-[1,1′-biphenyl]-3-yl)benzo[d]oxazol-5-yl)methyl)-L-proline] | 0.5 nM | 6.61 µg·h/mL | 1000 ng/mL | 1 h | 9.81 h |  |
